Source: publication doi:10.1101/2020.07.11.198341v1 (bioRxiv, 2020)

System: male C57Bl6J mice
Assay: Metabolic efficiency
Assay type: in vivo
Settings: insulin 20 nmol/kg daily i.p., n=8

## insulin
  nocturnal chow intake: slight decrease
